Laboratory results: US12617804B2, “Conjugation-fused bipolar redox-active molecule, preparation method, and application thereof” (Hangzhou Normal University, priority 2021, dated 2026)

Columns and labels:
[1] = Cyclic voltammetry (CV), TBA-TFSI supporting electrolyte in acetonitrile; assay type: physicochemical
Procedure: Redox kinetics of QPT-OMe obtained in Embodiment 1 is tested by cyclic voltammetry (CV). Tetrabutylammonium bis(trifluoromethylsulfonyl)imide (TBA-TF SI) is used as a supporting electrolyte and acetonitrile as a solvent. The results are shown in FIG. 3, where two pairs of symmetrical cathodic and anodic peaks can be clearly observed. The half-wave potentials of −2.04 and 0.72 V (with respect to Ag^+/Ag) correspond to the reduction and oxidation reactions of QPT-OMe, respectively. The open-circuit voltage is about 2.76 V when using QPT-OMe as the active material in the RFB, which is one of the highest value for bipolar molecules so far.
Furthermore, the QPT-OMe/QPT-OMe and QPT-P-OMe/QPT-OMe redox pairs show high rate constants of 1.4×10^−2 and 1.6×10-2 cm s^−1, respectively, by calculation. This is probably due to the relatively low recombination energy required for single electron transfer to occur from a large off-domain π-conjugated system. The high rate constants also imply negligible voltage loss when electrochemical reactions occur at the electrode surface.
The redox kinetics of QPT-TEG obtained in Embodiment 4 is tested by cyclic voltammetry (CV). Tetrabutylammonium bis(trifluoromethylsulfonyl)imide (TBA-TF SI) is used as a supporting electrolyte and acetonitrile as a solvent.

[2] = Miscibility of QPT-TEG with polar organic solvents; assay type: physicochemical; conditions: acetonitrile, dimethyl sulfoxide, dichloromethane and other solvents, in any ratio
Excerpt: The bipolar redox-active molecule with the above structure (QPT-TEG) is a […] fluid that is miscible with most polar organic solvents. QPT-TEG is able to increase the overall solubility of the molecule by introducing long ether chains without changing the redox potential of the designed redox subject molecule.

[3] = with respect to Ag+/Ag, TBA-TFSI, acetonitrile

## COc1ccc2c(c1)c(=O)c1cccc3c1n2-c1ccccc1S3 [QPT-OMe]
[1]
  electrochemical window: ~3 V
[1]; first-named redox pair, by calculation
  rate constant, QPT-OMe/QPT-OMe redox pair: 0.014 cm/s
[1]; from the two half-wave potentials
  open-circuit voltage as active material in the RFB: about 2.76 V
[1]; [3]
  half-wave potential, oxidation reaction: 0.72 V
  half-wave potential, reduction reaction: −2.04 V

## COCCOCCOCCOc1ccc2c(c1)c(=O)c1cccc3c1n2-c1ccccc1S3 [QPT-TEG]
[1]; compared with QPT-OMe, FIG. 5
  redox behavior in CV: basically the same as that of QPT-OMe
[2]
  miscibility with solvents: miscible
